{"source": "patent US20050142581A1", "about": "“Microrna as ligands and target molecules” (priority 2003, published 2005)", "key": {"[1]": {"system": "27 nucleotide fragment of bacterial 16S ribosomal RNA incorporating the A-site", "test": "ESI-FT-ICR mass spectrometry detection of non-covalent ligand complexes with 16S RNA fragment", "format": "binding", "details": "for ion abundance of binary complex relative to unbound 16S RNA: 200 μM ligand, 5 μM target 16S RNA fragment; for ion abundance of binary complex relative to unbound 16S RNA / relative binding affinity from comparison of ion abundance of binary complexes: mass spectrometry; for relative binding affinity from comparison of ion abundance of binary complexes: 16S RNA fragment; for mode of binding interaction of two ligands for the target RNA: ligand pair mixed with 5 μM 16S RNA fragment, presence and abundance of ternary complex", "excerpt": "Ligands bind competitively for a target when the binding of one ligand prevents the binding of the other ligand is the result of the ligands binding to the target at the same location. In this situation, the mixture contains an equilibrium of two binary complexes, one of which being one ligand bound to the target and the other being the other ligand bound to the target. The ligand having the greater affinity for the target will predominate and thus have higher signal intensity for its binary complex with the target compared to the other ligand. Competitive binding interaction between two ligands is determined according to methods of the invention by analyzing the mixture by mass-spectrometry to detect the presence or lack of signal corresponding to a ternary complex where both ligands are bound to the target at the same time. The lack of signal for a ternary complex indicates a competitive binding interaction between the two ligands while the presence of the signal indicates a non-competitive interaction.\nLigands bind concurrently when the binding of one ligand to the target is unaffected by the binding of the other and is a consequence of the ligands binding to the target at distinct sites. […] The ligand having the greater affinity for the target will have higher signal intensity for its binary complex with the target compared to the other ligand. […] Particularly, the absolute ion abundance of the ternary complex (TL1L2) is compared to the relative ion abundance of the binary complexes (TL1 and TL2) which contribute to the formation of the ternary complex with respect to the unbound target (TL1×TL2/T). Since there are two binary complexes contributing the formation of the ternary complex, the comparison is with the sum of the two contributing binary complexes i.e. TL1×TL2/T+TL2×TL1/T. If the absolute ion abundance of the ternary complex is equal to the sum of the relative ion abundance of the contributing binary complexes, then the two ligands concurrently bind to the target substrate. […] The relative ion abundance of the ternary complex (16S+2−DOS+DT) with respect to the unbound 16S target RNA (16S) is equal, within limits of error, to the sum of the relative ion abundance of the contributing binary complex ((16S+DT)×(16S+2−DOS)) with respect to the unbound target (16S) and the contributing binary complex ((16S+2−DOS)+(16S+DT)) with respect to the unbound target (16S).\nAll MS experiments were performed by using an Apex II 70e ESI-FT-ICR MS (Bruker Daltonics, Billerica, Mass.) with an actively shielded 7 tesla superconducting magnet. RNA solutions were prepared in 50 mM NH4OAc (pH 7), mixed with 10% isopropanol to aid desolvation, and infused at a rate of 1.5 μL/min by using a syringe pump. Ions were formed in a modified electrospray source (Analytica, Branford, Conn.) by using an off-axis grounded electrospray probe positioned about 1.5 cm from the metallized terminus of the glass desolvation capillary biased at 5,000 V. A countercurrent flow of dry […] gas heated to 150° C. was used to assist in the desolvation process. Ions were accumulated in an external ion reservoir comprised of a radio frequency-only hexapole, a skimmer cone, and an auxiliary electrode for 1,000 ms before transfer into the trapped ion cell for mass analysis. Each spectrum was the result of the co-addition of 64 transients comprised of 524,288 data points acquired over a […] bandwidth, resulting in a 1.2-sec detection interval. All aspects of pulse sequence control, data acquisition, and postacquisition processing were performed by using a Bruker Daltonics data station running XMASS Version 4.0 on a Silicon Graphics (Mountain View, Calif.) R5000 computer.\nRNA binding ligands are selected from a set of compounds using mass spectrometry. The RNA used for the target molecule is an RNA whose electrospray ionization properties have been optimized in conjunction with optimization of the electrospray ionization and desolvation conditions. […]"}, "[2]": {"system": "human CD40 mRNA", "test": "Inhibition of CD40 mRNA levels by oligonucleotides (real-time RT-PCR)", "format": "cell-based", "design": "concentration or dose not given beside the values", "details": "2'-MOE gapmers, 18 nucleotides, phosphorothioate throughout; averaged from three experiments", "summary_of_the_method": "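Cells at ~80% confluency were transfected with oligonucleotide at 150 nM final using Lipofectin 3.75 μg/ml for 4 h and harvested 16 h after treatment. Poly(A)+ mRNA was taken for TaqMan real-time RT-PCR of CD40, and percent inhibition was derived from a standard curve of untreated control mRNA.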"}}, "note": "“And” between values parts separate entries of the source, which are not always exact repeats. Equal values may be shown once. “Also recorded” adds a separate entry of the source. Oligonucleotides are written 5' to 3', each unit as a sugar letter and its base; * is a phosphorothioate linkage, no mark a phosphodiester; rarer units and linkages stand in square brackets, end groups in braces. Plain capitals give the bases only. e = 2'-O-(2-methoxyethyl) (MOE); [5mC] = 5-methylcytosine; d = 2'-deoxy (DNA)", "data": [{"compound": "1-{2-[(3R)-4-((2S)-2-amino-3-hydroxypropanoyl)-3-methylpiperazinyl]-2-oxoethyl}-5-methyl-1,3-dihydropyrimidine-2,4-dione [IBIS-271583]", "values": [{"measurement": "ion abundance of binary complex relative to unbound 16S RNA", "setting": "[1]", "result": 27.8, "unit": "%"}, {"measurement": "ion abundance of binary complex relative to unbound 16S RNA", "setting": "[1]; listed as IBIS-271483", "result": 52.4, "unit": "%"}, {"measurement": "relative binding affinity from comparison of ion abundance of binary complexes", "setting": "[1]", "result": "greater affinity for 16S than either parent compound"}, {"measurement": "relative binding affinity from comparison of ion abundance of binary complexes", "setting": "[1]; listed as IBIS-271483", "result": "greater affinity for the target 16S RNA than either of the parent compounds"}]}, {"compound": "19284 (eT*eG*eG*eA*dG*dC*dC*dA*dG*dG*dA*dA*dG*dA*eT*e[5mC]*eG*eT; antisense) [compound 19284]", "values": [{"measurement": "% Inhibition (Inhibition of CD40 mRNA Levels by Chimeric Phosphorothioate Oligonucleotides)", "setting": "[2]", "result": 54.48, "unit": "%"}]}, {"compound": "19285 (eT*eG*eG*eA*dG*dC*dA*dG*dC*dA*dG*dT*dG*dT*eT*eG*eG*eA; antisense) [compound 19285]", "values": [{"measurement": "% Inhibition (Inhibition of CD40 mRNA Levels by Chimeric Phosphorothioate Oligonucleotides)", "setting": "[2]", "result": 15.17, "unit": "%"}]}, {"compound": "19286 (eG*eT*eA*eA*dA*dG*dT*dC*dT*dC*dC*dT*dG*dC*eA*e[5mC]*eT*eG; antisense) [compound 19286]", "values": [{"measurement": "% Inhibition (Inhibition of CD40 mRNA Levels by Chimeric Phosphorothioate Oligonucleotides)", "setting": "[2]", "result": 30.62, "unit": "%"}]}, {"compound": "19288 (e[5mC]*eG*eG*eT*dT*dG*dG*dC*dA*dT*dC*dC*dA*dT*eG*eT*eA*eA; antisense) [compound 19288]", "values": [{"measurement": "% Inhibition (Inhibition of CD40 mRNA Levels by Chimeric Phosphorothioate Oligonucleotides)", "setting": "[2]", "result": 34.49, "unit": "%"}]}, {"compound": "19289 (e[5mC]*eT*e[5mC]*eT*dT*dT*dG*dC*dC*dA*dT*dC*dC*dT*e[5mC]*e[5mC]*eT*eG; antisense) [compound 19289]", "values": [{"measurement": "% Inhibition (Inhibition of CD40 mRNA Levels by Chimeric Phosphorothioate Oligonucleotides)", "setting": "[2]", "result": 41.84, "unit": "%"}]}, {"compound": "19290 (e[5mC]*eT*eG*eT*dC*dT*dC*dT*dC*dC*dT*dG*dC*dA*e[5mC]*eT*eG*eA; antisense) [compound 19290]", "values": [{"measurement": "% Inhibition (Inhibition of CD40 mRNA Levels by Chimeric Phosphorothioate Oligonucleotides)", "setting": "[2]", "result": 25.68, "unit": "%"}]}, {"compound": "19291 (eG*eG*eT*eG*dC*dA*dG*dC*dC*dT*dC*dA*dC*dT*eG*eT*e[5mC]*eT; antisense) [compound 19291]", "values": [{"measurement": "% Inhibition (Inhibition of CD40 mRNA Levels by Chimeric Phosphorothioate Oligonucleotides)", "setting": "[2]", "result": 76.27, "unit": "%"}]}, {"compound": "19292 (eA*eA*e[5mC]*eT*dG*dC*dC*dT*dG*dT*dT*dT*dG*dC*e[5mC]*e[5mC]*eA*e[5mC]; antisense) [compound 19292]", "values": [{"measurement": "% Inhibition (Inhibition of CD40 mRNA Levels by Chimeric Phosphorothioate Oligonucleotides)", "setting": "[2]", "result": 63.34, "unit": "%"}]}, {"compound": "19293 (e[5mC]*eT*eT*e[5mC]*dT*dG*dC*dC*dT*dG*dC*dA*dC*dC*e[5mC]*e[5mC]*eT*eG; antisense) [compound 19293]", "values": [{"measurement": "% Inhibition (Inhibition of CD40 mRNA Levels by Chimeric Phosphorothioate Oligonucleotides)", "setting": "[2]", "result": 0.00, "unit": "%"}]}, {"compound": "19294 (eA*e[5mC]*eT*eG*dA*dC*dT*dG*dG*dG*dC*dA*dT*dA*eG*e[5mC]*eT*e[5mC]; antisense) [compound 19294]", "values": [{"measurement": "% Inhibition (Inhibition of CD40 mRNA Levels by Chimeric Phosphorothioate Oligonucleotides)", "setting": "[2]", "result": 11.55, "unit": "%"}]}, {"compound": "N[C@@H]1C[C@H](N)[C@@H](O)C(O)[C@H]1O", "note": "(stereo partly drawn) [2-DOS, 2-deoxystreptamine, reference compound]", "values": [{"measurement": "relative binding affinity from comparison of ion abundance of binary complexes", "setting": "[1]", "result": "greater binding affinity for the target RNA than DT"}, {"measurement": "mode of binding interaction of two ligands for the target RNA", "setting": "[1]", "result": "concurrent binding interaction; also recorded: cooperative binding"}]}, {"compound": "NN1CN(SCc2ccccc2)C=N1", "note": "[2-amino-4-benzylthio-1,2,4-triazole]", "values": [{"measurement": "ions of ligand adduct with RNA target observed", "setting": "[1]; RNA target 5 micromolar, ligand 100 micromolar, ammonium as standard ligand", "result": "also seen"}]}, {"compound": "Nc1n[nH]c(N)n1", "note": "[DT, 3,5-diamino-1,2,4-triazole, reference compound]", "values": [{"measurement": "mode of binding interaction of two ligands for the target RNA", "setting": "[1]", "result": "concurrent binding interaction"}, {"measurement": "mode of binding interaction of two ligands for the target RNA", "setting": "[1]; listed as 3,5-DT", "result": "cooperative binding"}, {"measurement": "mode of binding interaction of two ligands for the target RNA", "setting": "[1]; listed as 3,5-diamino-1,2,4-triazole", "result": "concurrent binding"}]}, {"compound": "N[C@@H](CO)C(=O)N1CCNCC1", "note": "[IBIS-326611, (2S)-2-amino-3-hydroxy-1-piperazinylpropan-1-one]", "values": [{"measurement": "ion abundance of binary complex relative to unbound 16S RNA", "setting": "[1]", "result": "14.7% and 27.8%"}]}, {"compound": "Nc1cccc2nc(C3CCNCC3)[nH]c12", "note": "[Ibis-326732, 4-amino-2-piperidin-4-ylbenzimidazole]", "values": [{"measurement": "relative binding affinity from comparison of ion abundance of binary complexes", "setting": "[1]", "result": "greater affinity than glucosamine"}, {"measurement": "mode of binding interaction of two ligands for the target RNA", "setting": "[1]", "result": "competitive displacement of glucosamine; also recorded: competitive binders"}]}, {"compound": "N[C@H]1C(O)O[C@H](CO)[C@@H](O)[C@@H]1O", "note": "(stereo partly drawn) [glucosamine, reference compound]", "values": [{"measurement": "mode of binding interaction of two ligands for the target RNA", "setting": "[1]", "result": "competitive binders; also recorded: displaced from the RNA by addition of a benzimidazole compound"}]}]}
